According to patent US6495715B2, “Calcium channel blockers” (Warner-Lambert Company, priority 1997, dated 2002):
Where a name gives a salt, the structure may show the parent alone. Blank lines part the entries; values can stand above or below the compound they belong to.

Target: T1, N-type Ca2+ channel (Homo sapiens, UniProt Q00975)
T1 construct: host or cells: IMR-32 cells, differentiated with dibutyryl cAMP and bromodeoxyuridine
Test: Measurement of N-type Ca2+ channel blocking potencies in IMR-32 cells using the fluorescent Ca2+ indicator Indo-1
Format: cell-based
Settings: for inhibition at 1 µM / IMR 32 % of Blockade @ 1 μM: 1 μM compound; for inhibition at 1 µM: read-out: IMR 32 % of Blockade @ 1 μM; for inhibition at 10 µM / IMR 32 % of Blockade @ 10 μM: 10 μM compound; for inhibition at 10 µM: read-out: IMR 32 % of Blockade @ 10 μM; for IC50: K+-stimulated Ca2+ flux, 5 μM nitrendipine to block L-type channels
Description: Measurement of N-type Ca^2+ Channel Blocking Potencies of Compounds in IMR-32 Cells Using the Fluorescent Ca^2+Indicator Indo-1
IMR-32 cells are a human tumoral cell line of neural origin. […] Calcium flux into these cells may be induced by stimulation with elevated potassium concentrations. The L-channel component of calcium flux may be blocked by adding 5 μM nitrendipine. The remaining component of calcium entry into the IMR-32 cells is due to calcium flux through N-type calcium channels. Intracellular calcium concentrations are measured using the fluorescent calcium indicator Indo-1. The effect of drug concentration on calcium uptake is studied.
The IMR-32 cell line was obtained from the American Type Culture Collection (Rockville, Md.). Cells were grown in Eagle's Minimum Essential Medium with Earle's salts supplemented with 10% fetal bovine serum, 2 mM L-Gln and antibiotic/antimycotic mixture (Gibco). […] After 7 to 13 days of differentiation, cells were detached using 0.5 mM EDTA and loaded with 5 μM Indo-1 acetoxymethyl ester (Molecular Probes, Eugene, Oreg.) at 30° C. for 45 minutes. Loaded cells were washed twice, resuspended (˜10^7 cells/mL) in assay buffer (10 mM HEPES/Tris pH 7.4 in Hank's Balanced Salt Solution without bicarbonate or phenol red containing 0.5% bovine serum albumin) and kept on ice until use. Fluorescence measurements were carried out in a Photon Technology International (PTI, South Brunswick, N.J.) Model RF-F3004 spectrofluorometer with dual emission monochromators using excitation at […] and emission at 400 and 490 nm. The instrument was equipped with a thermostated cuvette holder with stirring capabilities as well as with a computer-controlled pump which allowed for reagent addition during measurement. Instrument control and data collection was done by PTI's OSCAR software running on an IBM compatible computer. Different concentrations of the test compounds (60 μL in dimethyl sulfoxide) were added to 5.94 mL of assay buffer containing approximately 3×10^6 loaded cells, and 5 μM Nitrendipine (in […] EtOH) to block L-type Ca^2+ channels. Samples were incubated for 10 minutes at 30° C. and then aliquoted into three 10×10 mm disposable acrylic cuvettes. Emission signals at 400 and 490 nm were acquired from each cuvette at 30° C. for 50 seconds. At 20 seconds after the start of reading, cells were depolarized by the addition of 160 μL of stimulation solution (1 M KCl, 68 mM CaCl2) to the cuvette via the computer-controlled pump. Ratio of dual emission signals (400 nm/490 nm), which is proportional to intracellular Ca^2+ concentration, was plotted against time, and the difference between maximal response after stimulation and basal value (before stimulation) was determined. Values obtained in this way were plotted as a function of drug concentration. IC50 values of test compounds were calculated by fitting a four-parameter logistic function to the data using the least squares method.

T1 sequence (Q00975 whole entry): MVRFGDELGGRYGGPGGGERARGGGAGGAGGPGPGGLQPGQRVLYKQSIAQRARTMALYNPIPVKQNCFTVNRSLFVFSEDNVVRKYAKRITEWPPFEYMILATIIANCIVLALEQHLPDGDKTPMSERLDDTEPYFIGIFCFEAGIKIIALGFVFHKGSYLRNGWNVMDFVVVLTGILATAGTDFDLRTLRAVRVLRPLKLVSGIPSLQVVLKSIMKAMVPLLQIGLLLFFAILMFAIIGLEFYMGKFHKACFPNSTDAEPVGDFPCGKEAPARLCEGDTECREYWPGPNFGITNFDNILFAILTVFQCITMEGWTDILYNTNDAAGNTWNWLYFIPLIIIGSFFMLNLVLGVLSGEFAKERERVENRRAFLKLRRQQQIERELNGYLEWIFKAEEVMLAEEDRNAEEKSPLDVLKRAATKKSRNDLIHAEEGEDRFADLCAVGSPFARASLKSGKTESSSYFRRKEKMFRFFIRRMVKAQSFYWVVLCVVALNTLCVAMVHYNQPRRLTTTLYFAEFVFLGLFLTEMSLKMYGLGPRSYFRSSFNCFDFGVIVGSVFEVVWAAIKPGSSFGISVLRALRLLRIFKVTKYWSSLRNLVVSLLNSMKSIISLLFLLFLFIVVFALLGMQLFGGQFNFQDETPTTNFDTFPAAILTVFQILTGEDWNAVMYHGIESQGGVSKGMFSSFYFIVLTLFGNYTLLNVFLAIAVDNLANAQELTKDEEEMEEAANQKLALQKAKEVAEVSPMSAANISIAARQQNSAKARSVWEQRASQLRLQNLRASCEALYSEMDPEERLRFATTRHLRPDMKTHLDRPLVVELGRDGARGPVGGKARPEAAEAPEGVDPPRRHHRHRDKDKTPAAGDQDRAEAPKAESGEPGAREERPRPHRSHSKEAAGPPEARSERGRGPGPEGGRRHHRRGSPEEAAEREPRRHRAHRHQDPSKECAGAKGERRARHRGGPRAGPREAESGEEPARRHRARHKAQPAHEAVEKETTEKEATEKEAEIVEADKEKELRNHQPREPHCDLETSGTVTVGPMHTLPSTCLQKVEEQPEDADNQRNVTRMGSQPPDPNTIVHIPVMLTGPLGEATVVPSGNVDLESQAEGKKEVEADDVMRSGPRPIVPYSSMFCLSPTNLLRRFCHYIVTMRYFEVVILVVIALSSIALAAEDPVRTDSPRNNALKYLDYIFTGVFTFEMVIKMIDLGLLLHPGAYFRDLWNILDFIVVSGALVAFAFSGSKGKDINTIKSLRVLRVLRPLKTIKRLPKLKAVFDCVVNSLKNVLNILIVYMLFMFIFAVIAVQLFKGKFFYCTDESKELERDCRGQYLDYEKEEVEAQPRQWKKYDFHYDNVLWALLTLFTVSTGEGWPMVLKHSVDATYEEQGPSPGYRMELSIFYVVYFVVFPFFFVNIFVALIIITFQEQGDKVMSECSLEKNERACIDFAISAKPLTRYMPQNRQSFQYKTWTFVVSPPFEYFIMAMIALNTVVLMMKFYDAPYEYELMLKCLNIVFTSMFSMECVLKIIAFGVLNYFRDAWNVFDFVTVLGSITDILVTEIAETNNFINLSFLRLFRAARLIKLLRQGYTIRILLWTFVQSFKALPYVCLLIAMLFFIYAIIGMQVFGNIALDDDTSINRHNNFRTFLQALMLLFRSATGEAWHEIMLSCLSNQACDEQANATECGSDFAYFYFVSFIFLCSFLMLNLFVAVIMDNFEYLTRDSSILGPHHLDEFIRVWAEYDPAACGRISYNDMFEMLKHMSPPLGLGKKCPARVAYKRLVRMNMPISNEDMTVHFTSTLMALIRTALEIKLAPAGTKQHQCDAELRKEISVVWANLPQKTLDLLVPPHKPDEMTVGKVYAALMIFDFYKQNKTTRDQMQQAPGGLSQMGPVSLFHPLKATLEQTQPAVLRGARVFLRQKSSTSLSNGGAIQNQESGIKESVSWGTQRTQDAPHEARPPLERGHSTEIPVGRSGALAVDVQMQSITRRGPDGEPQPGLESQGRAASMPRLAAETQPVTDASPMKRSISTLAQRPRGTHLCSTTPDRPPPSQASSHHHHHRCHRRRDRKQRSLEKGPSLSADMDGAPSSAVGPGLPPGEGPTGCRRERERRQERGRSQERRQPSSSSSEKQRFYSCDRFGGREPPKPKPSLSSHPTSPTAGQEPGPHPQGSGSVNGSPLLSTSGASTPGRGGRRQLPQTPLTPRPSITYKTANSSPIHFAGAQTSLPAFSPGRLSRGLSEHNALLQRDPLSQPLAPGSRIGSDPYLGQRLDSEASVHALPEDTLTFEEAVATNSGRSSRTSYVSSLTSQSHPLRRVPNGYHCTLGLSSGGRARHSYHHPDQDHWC
T1 sequence (P54289 25-956 partner limits assumed): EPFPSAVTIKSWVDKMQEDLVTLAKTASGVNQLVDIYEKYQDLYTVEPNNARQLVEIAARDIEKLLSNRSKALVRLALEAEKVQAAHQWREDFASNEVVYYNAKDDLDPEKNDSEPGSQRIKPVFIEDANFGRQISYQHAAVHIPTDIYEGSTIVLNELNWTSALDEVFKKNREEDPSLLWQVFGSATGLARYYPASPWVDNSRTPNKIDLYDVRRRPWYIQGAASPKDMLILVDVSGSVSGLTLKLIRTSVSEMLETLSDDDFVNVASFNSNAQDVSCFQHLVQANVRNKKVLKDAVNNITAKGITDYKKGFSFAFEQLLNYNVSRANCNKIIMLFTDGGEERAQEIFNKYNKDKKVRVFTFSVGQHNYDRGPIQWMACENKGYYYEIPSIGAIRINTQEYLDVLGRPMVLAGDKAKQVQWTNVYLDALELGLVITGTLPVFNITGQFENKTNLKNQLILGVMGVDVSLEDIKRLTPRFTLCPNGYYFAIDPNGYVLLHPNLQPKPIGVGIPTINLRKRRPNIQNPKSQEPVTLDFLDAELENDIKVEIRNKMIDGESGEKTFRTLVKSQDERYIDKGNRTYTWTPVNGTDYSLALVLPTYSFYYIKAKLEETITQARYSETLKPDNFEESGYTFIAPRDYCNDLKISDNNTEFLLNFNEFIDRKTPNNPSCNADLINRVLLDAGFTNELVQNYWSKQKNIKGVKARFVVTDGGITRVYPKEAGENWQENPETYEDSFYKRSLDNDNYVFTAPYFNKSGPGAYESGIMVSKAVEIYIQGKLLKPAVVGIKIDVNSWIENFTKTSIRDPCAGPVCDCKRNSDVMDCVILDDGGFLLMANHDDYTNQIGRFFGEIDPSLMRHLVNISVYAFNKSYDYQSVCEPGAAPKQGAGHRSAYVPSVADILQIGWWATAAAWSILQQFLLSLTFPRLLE
T1 sequence (P54289 957-1103 partner limits assumed): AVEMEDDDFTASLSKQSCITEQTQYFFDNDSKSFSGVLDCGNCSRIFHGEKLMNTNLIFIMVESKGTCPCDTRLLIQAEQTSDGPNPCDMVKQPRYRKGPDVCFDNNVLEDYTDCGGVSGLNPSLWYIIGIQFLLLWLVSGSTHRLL
T1 sequence (Q02641 whole entry partner): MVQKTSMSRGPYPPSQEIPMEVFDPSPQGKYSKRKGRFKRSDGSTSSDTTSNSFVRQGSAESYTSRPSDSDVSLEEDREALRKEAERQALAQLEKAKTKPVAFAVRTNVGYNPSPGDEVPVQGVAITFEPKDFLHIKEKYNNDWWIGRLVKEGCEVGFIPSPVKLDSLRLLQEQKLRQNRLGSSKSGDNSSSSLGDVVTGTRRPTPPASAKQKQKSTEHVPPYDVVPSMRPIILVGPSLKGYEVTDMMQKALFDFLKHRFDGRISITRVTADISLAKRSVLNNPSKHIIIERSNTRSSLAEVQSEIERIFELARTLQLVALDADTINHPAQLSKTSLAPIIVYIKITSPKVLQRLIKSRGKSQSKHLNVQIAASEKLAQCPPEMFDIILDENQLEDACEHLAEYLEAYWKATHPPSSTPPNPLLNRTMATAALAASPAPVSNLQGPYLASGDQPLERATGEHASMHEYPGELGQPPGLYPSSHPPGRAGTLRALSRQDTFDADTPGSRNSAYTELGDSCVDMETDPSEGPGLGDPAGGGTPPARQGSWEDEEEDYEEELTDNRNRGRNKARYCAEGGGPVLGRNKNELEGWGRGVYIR

inhibition at 1 µM (5 μM nitrendipine): 40% | inhibition at 10 µM (5 μM nitrendipine): 100%
Compound: CC(C)=CCN(c1ccc(OCc2ccccc2)cc1)C1CCCN(C(=O)[C@@H](N)CC(C)C)C1 (mixture of isomers) [Example 45, (S, R/S)-2-Amino-1-{3-[(4-benzyloxy-phenyl)-(3-methyl-but-2-enyl)-amino]-piperidin-1-yl}-4-methyl-pentan-1-one]

inhibition at 1 µM (5 μM nitrendipine): 41% | inhibition at 10 µM (5 μM nitrendipine): 91%
Compound: CC(C)=CCN(c1ccc(OCc2ccccc2)cc1)C1CCCN(C(=O)[C@H](CC(C)C)NC(=O)N2CCCCCC2)C1 (mixture of isomers) [Example 46, (S,R/S)-Azepane-1-carboxylic acid (1-{3-[(4-benzyloxy-phenyl)-(3-methyl-but-2-enyl)-amino]-piperidine-1-carbonyl}-3-methyl-butyl)-amide]

IMR 32 % of Blockade @ 1 μM (5 μM nitrendipine): 50% @ 1
Compound: CC(C)=CCN(C[C@H](C)NC(=O)[C@H](CC(C)C)NC(=O)N1CCCCCC1)c1ccc(OCc2ccccc2)cc1 (relative stereo) [Example 2, [S-(R*,R*)]-Azepane-1-carboxylic acid (1-{2-[(4-benzyloxy-phenyl)-(3-methyl-but-2-enyl)-amino]-1-methyl-ethylcarbamoyl}-3-methyl-butyl)-amide]

IC50: 3400 nM
Compound: CC(C)=CCN(c1ccc(C#CC2(O)CCCCC2)cc1)C1CCN(C(=O)C(CC(C)C)NC(=O)N2CCCCCC2)CC1 (stereo in doubt) [Example 43, (S)-Azepane-1-carboxylic acid (1-{4-[[4-(1-hydroxy-cyclohexylethynyl)-phenyl]-(3-methyl-but-2-enyl)-amino]-piperidine-1-carbonyl}-3-methyl-butyl)-amide]

IC50: 500 nM
Compound: CC(C)=CCN(c1ccc(OCc2ccccc2)cc1)C1CCN(C(=O)[C@H](CC(C)C)NC(=O)N2CCCCCC2)CC1 [Example 5, (S)-Azepane-1-carboxylic acid (1-{4-[(4-benzyloxy-phenyl)-(3-methyl-but-2-enyl)-amino]-piperidine-1-carbonyl}-3-methyl-butyl)-amide hydrochloride salt]

inhibition at 1 µM (5 μM nitrendipine): 55% | inhibition at 10 µM (5 μM nitrendipine): 76%
Compound: CC(C)C[C@H](NC(=O)N1CCCCCC1)C(=O)NC(C)(C)CN(c1ccc(OCc2ccccc2)cc1)C1C=CCCC1 (stereo partly drawn) [Example 8, (S)-Azepane-1-carboxylic acid (1-{2-[(4-benzyloxy-phenyl)-cyclohex-2-enyl-amino]-1,1-dimethyl-ethylcarbamoyl}-3-methyl-butyl)-amide]

inhibition at 1 µM (5 μM nitrendipine): 43% | inhibition at 10 µM (5 μM nitrendipine): 92%
Compound: CC(C)=CCN(c1ccc(OCc2ccccc2)cc1)C1CCN(C(=O)[C@H](N)CC(C)C)CC1 [Example 21, (R)-2-Amino-1-{4-[(4-benzyloxy-phenyl)-(3-methyl-but-2-enyl)-amino]-piperidin-1-yl}-4-methyl-pentan-1-one]

IC50: 750 nM
Compound: CC(C)=CCN(c1ccc(OCc2ccccc2)cc1)C1CCN(C(=O)[C@H](CC(C)C)NC(C)C)CC1 [Example 24, (S)-1-{4-[(4-Benzyloxy-phenyl)-(3-methyl-but-2-enyl)-amino]-piperidin-1-yl}-2-isopropylamino-4-methyl-pentan-1-one]

IC50: 510 nM
Compound: CC(C)=CCN(c1ccc(OCc2ccccc2)cc1)C1CCN(C(=O)[C@H](CC(C)C)NC2CCCCC2)CC1 [Example 26, (S)-1-{4-[(4-Benzyloxy-phenyl)-(3-methyl-but-2-enyl)-amino]-piperidin-1-yl}-2-cyclohexylamino-4-methyl-pentan-1-one]

IC50: 390 nM
Compound: CC(C)=CCN(c1ccc(OCc2ccccc2)cc1)C1CCN(C(=O)[C@H](CC(C)C)NCc2ccc[nH]2)CC1 [Example 27, (S)-1-{4-[(4-Benzyloxy-phenyl)-(3-methyl-but-2-enyl)-amino]-piperidin-1-yl}-4-methyl-2-[(1H-pyrrol-2-ylmethyl)-amino]-pentan-1-one]

IC50: 2500 nM
Compound: CC(C)C[C@H](NC(=O)N1CCCCCC1)C(=O)N1CCC(Nc2ccc(OCc3ccccc3)cc2)CC1 [Example 28, (S)-Azepane-1-carboxylic acid {1-[4-(4-benzyloxy-phenylamino)-piperidine-1-carbonyl]-3-methyl-butyl}-amide]

The next lines start with the compound.

Compound: CC(C)=CCN(C[C@H](C)NC(=O)[C@H](CC(C)C)N(C)C)c1ccc(OCc2ccccc2)cc1 (relative stereo) [Example 14, [S-(R*,R*)]-2-Dimethylamino-4-methyl-pentanoic acid {2-[(4-benzyloxy-phenyl)-(3-methyl-but-2-enyl)-amino]-1-methyl-ethyl}-amide]
IMR 32 % of Blockade @ 1 μM (5 μM nitrendipine): 36% | IMR 32 % of Blockade @ 10 μM (5 μM nitrendipine): 86%

Compound: CC(C)=CCN[C@@H](CC(C)C)C(=O)N[C@@H](C)CN(CC=C(C)C)c1ccc(OCc2ccccc2)cc1 (relative stereo) [Example 15, [S-(R*,R*)]-4-Methyl-2-(3-methyl-but-2-enylamino)-pentanoic acid {2-[(4-benzyloxy-phenyl)-(3-methyl-but-2-enyl)-amino]-1-methyl-ethyl}-amide]
IMR 32 % of Blockade @ 0.3 μM (0.3 μM compound, 5 μM nitrendipine): 21% | IMR 32 % of Blockade @ 3 μM (3 μM compound, 5 μM nitrendipine): 65%

Compound: CC(C)=CCN(C[C@H](C)NC(=O)[C@H](CC(C)C)NCCC(C)C)c1ccc(OCc2ccccc2)cc1 (relative stereo) [Example 16, [S-(R*,R*)]-4-Methyl-2-(3-methyl-butylamino)-pentanoic acid {2-[(4-benzyloxy-phenyl)-(3-methyl-but-2-enyl)-amino]-1-methyl-ethyl}-amide]
IMR 32 % of Blockade @ 1 μM (5 μM nitrendipine): 36% | IMR 32 % of Blockade @ 10 μM (5 μM nitrendipine): 86%

Compound: CC(C)=CCN(C[C@H](C)NC(=O)[C@H](CC(C)C)N(CCC(C)C)CCC(C)C)c1ccc(OCc2ccccc2)cc1 (relative stereo) [Example 18, [S-(R*,R*)]-2-[Bis-(3-methyl-butyl)-amino]-4-methyl-pentanoic acid {2-[(4-benzyloxy-phenyl)-(3-methyl-but-2-enyl)-amino]-1-methyl-ethyl}-amide]
IMR 32 % of Blockade @ 1 μM (5 μM nitrendipine): 67% | IMR 32 % of Blockade @ 10 μM (5 μM nitrendipine): 71%

Compound: CC(C)=CCN(C[C@H](C)NC(=O)[C@H](CC(C)C)N(CC=C(C)C)CC=C(C)C)c1ccc(OCc2ccccc2)cc1 (relative stereo) [Example 19, [S-(R*,R*)]-2-{Bis]-(3-methyl-but-2-enylamino)-4-Methyl-pentanoic acid {2-[(4-benzyloxy-phenyl)-(3-methyl-but-2-enyl)-amino]-1-methyl-ethyl 1-amide]
IMR 32 % of Blockade @ 1 μM (5 μM nitrendipine): 74% | IMR 32 % of Blockade @ 10 μM (5 μM nitrendipine): 70%

Compound: CC(C)=CCN(CC(C)(C)NC(=O)[C@H](CC(C)C)N(C)C)c1ccc(OCc2ccccc2)cc1 [Example 9, (S)-2-Dimethylamino-4-methyl-pentanoic acid {2-[(4-benzyloxy-phenyl)-(3-methyl-but-2-enyl)-amino]-1,1-dimethyl-ethyl}-amide]
IC50: 1600 nM

Compound: CC(C)=CCN(CC(C)(C)NC(=O)[C@H](CC(C)C)N(C)CCC(C)C)c1ccc(OCc2ccccc2)cc1 [Example 11, (S)-4-Methyl-2-[methyl-(3-methyl-butyl)-amino]-pentanoic acid {2-[(4-benzyloxy-phenyl)-(3-methyl-but-2-enyl)-amino]-1.1-dimethyl-ethyl}-amide]
IMR 32 % of Blockade @ 1 μM (5 μM nitrendipine): 49% | IMR 32 % of Blockade @ 10 μM (5 μM nitrendipine): 91%

Compound: CC(C)=CCN(CC(C)(C)NC(=O)[C@H](CC(C)C)N(C)C1C=CCCC1)c1ccc(OCc2ccccc2)cc1 (stereo partly drawn) [Example 12, (S)-2-(Cyclohex-2-enyl-methyl-amino)-4-methyl-pentanoic acid {2-[(4-benzyloxy-phenyl)-(3-methyl-but-2-enyl)-amino]-1,1-dimethyl-ethyl}-amide]
IC50: 630 nM

Compound: CC(C)=CCN(CC(C)(C)NC(=O)[C@H](CC(C)C)N(C)Cc1ccc(C(C)(C)C)cc1)c1ccc(OCc2ccccc2)cc1 [Example 13, (S)-2-[(4-tert-Butyl-benzyl)-methyl-amino]-4-methyl-pentanoic acid {2-[(4-benzyloxy-phenyl)-(3-methyl-but-2-enyl)-amino]-1.1-dimethyl-ethyl}-amide]
IC50: 5600 nM

Compound: CC(C)CCN(C)[C@@H](CC(C)C)C(=O)NC(C)(C)CN(c1ccc(OCc2ccccc2)cc1)C1C=CCCC1 (stereo partly drawn) [Example 17, (S)-4-Methyl-2-[methyl-(3-methyl-butyl)-amino]-pentanoic acid {2-[(4-benzyloxy-phenyl)-cyclohex-2-enyl-amino]-1,1-dimethyl-ethyl}-amide]
inhibition at 1 µM (5 μM nitrendipine): 57% | inhibition at 10 µM (5 μM nitrendipine): 80%
